For 15 compounds, DC50 and IC50 results are on record in patent US20220242846A1, “ISOINDOLINONE COMPOUNDS” (Monte Rosa Therapeutics AG, priority 2019, published 2022).

Bounds are passed on as bounds.

One assay has as its target GSPT1 (Homo sapiens, UniProt P15170+Q96SW2). Briefly: Immunofluorescence assay for GSPT1 degradation in CAL-51 cells. Further details: CAL-51 cells were purchased from DSMZ (cat. Number ACC302); endogenous in cells; host or cells: CAL-51 (DSMZ ACC302). Conditions: compound treatment 6 hours, read-out: Code: activity for GSPT1 degradation (DC50). The class given is cell-based. The protocol: CAL-51 cells were purchased from DSMZ (cat. Number ACC302), sub-cultured in 90% Dulbecco's MEM (4.5 g/L glucose, Gibco 11965) +10% heat inactivated FBS (BioConcept, 2-01F136I) and incubated at 37° C., 5% CO2. For the assay, imaging microtiterplate Cell Carrier 96 Ultra (Perkin Elmer 6055302) were pre-coated with Fibronectin (Sigma F085, 300 at 0.2 μg/ml) in PBS (1000, Gibco 14190) for 45 min at room temperature, rinsed with PBS and CAL-51 cells (30K cells/well) were plated and let to adhere overnight. Cells were treated with compounds typically using a serial dilution ranging from 30 μM to 0.1 nM for 6 hours. Compounds were stored at 10 mM DMSO stocks. Vehicle (DMSO), positive (CC-885, 10 μM) and rescue controls (positive control plus 0.2 μM bortezomib) were also included at this stage. Cells were subsequently rinsed with PBS and fixed in 10% Formalin solution (50 μl, Sigma HT5011)) for 20 mins at room temperature. Following three consecutive PBS washes (100 μl), cells were permeabilized in 0.1% Triton X-100 in PBS (Sigma 93443, 50 μl) for 15 mins at room temperature. Following three further PBS washes, 50 μl blocking buffer (1% BSA, Sigma A4503, in PBS) was added for 45 min for signal-to-noise reduction. Primary antibody (human GSPT1, Sigma HPA052488) was diluted in blocking buffer (dil. 1/300, 35 μl/well) and incubated with the cells overnight at 4° C. After three PBS washes, Alexa-fluor 488 coupled secondary antibodies (Invitrogen, A32731, dil. 1/1000), Alexa-fluor 647-Phalloïdin (Invitrogen, A22287, dil. 1/200) and DAPI (Thermo, #62248, dil.1/1000) were diluted in blocking buffer and incubated with the samples for 2 hours at room temperature. After three final PBS washes, samples were conserved in 1000 PBS in the dark, until measurement. Image acquisition was performed on the Operetta High-Content Imager (Perkin-Elmer). Fluorescence intensity of Alexa-Fluor 488 (GSPT1), Alexa-Fluor 647 (Actin) and DAPI (Nucleus) were measured. For the determination of GSPT1 DC50 values, a custom algorithm implemented in the PerkinElmer image analysis software Harmony-Acapella® was developed. After user-defined setting of adjustment parameters, the analysis was run identically without human intervention for all image fields. DAPI staining of the nuclei was used to determine the location of cells using standard nuclei detection modules. Segmentation artifacts were removed by threshold-based filters for area, roundness and intensity. The outline of the cells was determined analogously from the sum of the normalized, smoothed DAPI and Actin channel, starting from each nucleus. The Alexa-Fluor 488 (GSPT1) signal intensity in each cell was finally measured, in order to obtain a Mean intensity per cell. GSPT1 degradation (DC50) was calculated after normalization to controls and data import in CDD vault Database, using non-linear regression. Activity for GSPT1 Degradation Table 3 assigns each compound a code indicating the ability for GSPT1 degradation: A, B or C. According to the code, A represents a DC50 value of ≤100 nM, B represents a DC50 value >100 nM and ≤300 nM and C represents a DC50 value of >300 nM.

The target in assay [1] is T1, Full length wild-type cereblon CRBN (Homo sapiens, UniProt Q96SW2).
T1 construct: Full length wild-type cereblon CRBN (80.0 nM, 10 μL) was incubated in assay buffer
T1 sequence (Q96SW2 whole entry): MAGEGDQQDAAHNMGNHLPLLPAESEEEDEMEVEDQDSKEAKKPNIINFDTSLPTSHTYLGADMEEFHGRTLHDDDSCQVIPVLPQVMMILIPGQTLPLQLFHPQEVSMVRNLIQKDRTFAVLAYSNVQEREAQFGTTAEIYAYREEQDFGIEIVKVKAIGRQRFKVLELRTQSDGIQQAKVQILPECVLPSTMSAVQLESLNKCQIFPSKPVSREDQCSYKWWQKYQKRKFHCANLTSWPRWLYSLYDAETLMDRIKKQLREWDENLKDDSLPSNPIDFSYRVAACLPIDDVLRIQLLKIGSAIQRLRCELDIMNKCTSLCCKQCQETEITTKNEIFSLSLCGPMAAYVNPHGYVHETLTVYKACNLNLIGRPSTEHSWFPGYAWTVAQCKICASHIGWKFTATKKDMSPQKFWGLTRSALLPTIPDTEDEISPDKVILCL
Briefly: Fluorescence polarization (FP) assay indicating cereblon binding. The following applies: CRBN 80.0 nM, fluorescent probe 5 nM, FP measured after 12 hours; read-out: rFP IC50. An excerpt: Protocol for Fluorescent Polarization Assay
Compound activity was monitored in a fluorescence polarization (FP) homogeneous assay using 1-[5-({2-[2-(2-{[2-(2,6-dioxopiperidin-3-yl)-1,3-dioxo-2,3-dihydro-1H-isoindol-4-yl]oxy}acetamido)ethoxy]ethyl}carbamoyl)pentyl]-3,3-dimethyl-2-[(1E,3E)-5-[(2E)-1,3,3-trimethyl-5-sulfo-2,3-dihydro-1H-indol-2-ylidene]penta-1,3-dien-1-yl]-3H-indol-1-ium-5-sulfonate as a fluorescent probe. Unless otherwise stated, all reagents were purchased from Sigma Aldrich. Enzymatic reactions were conducted in Perkin-Elmer Black 384 well ProxiPlate Plus (catalogue no. 6008269) in 10 μL total volume. Full length wild-type cereblon CRBN (80.0 nM, 10 μL) was incubated in assay buffer containing 20 mM HEPES (pH 8.0), […], 0.5 mM TCEP and 0.05% Tween 20 in the presence or absence of compound (300 nL). Inhibitors were stored as 10 mM DMSO stocks in an inert environment (low humidity, dark, low oxygen, room temperature) using the Storage Pod System. Compounds and DMSO were dispensed using the Echo E5XX (Labcyte Inc. USA) to give concentrations from 300 to 0.937 or 3000 to 9.3 nM in a 12 data point curve. […] Following incubation at room temperature for […], the assay was initiated by dispensing the probe to a final concentration of 5 nM (2.5 nL of a 20 μM stock) using the Echo E5XX. FP was measured after a period of 12 hours using a Pherastar plate reader (BMG Labtech, Germany) exciting at 590 nm and measuring the amount of parallel and perpendicular light at 675 nm. The FP signal was subsequently normalized to the no-compound control (i.e., DMSO). Analysis and IC50 values were derived using Dotmatics (Dotmatics UK) software.

Chain of GSPT1 (P15170 whole entry): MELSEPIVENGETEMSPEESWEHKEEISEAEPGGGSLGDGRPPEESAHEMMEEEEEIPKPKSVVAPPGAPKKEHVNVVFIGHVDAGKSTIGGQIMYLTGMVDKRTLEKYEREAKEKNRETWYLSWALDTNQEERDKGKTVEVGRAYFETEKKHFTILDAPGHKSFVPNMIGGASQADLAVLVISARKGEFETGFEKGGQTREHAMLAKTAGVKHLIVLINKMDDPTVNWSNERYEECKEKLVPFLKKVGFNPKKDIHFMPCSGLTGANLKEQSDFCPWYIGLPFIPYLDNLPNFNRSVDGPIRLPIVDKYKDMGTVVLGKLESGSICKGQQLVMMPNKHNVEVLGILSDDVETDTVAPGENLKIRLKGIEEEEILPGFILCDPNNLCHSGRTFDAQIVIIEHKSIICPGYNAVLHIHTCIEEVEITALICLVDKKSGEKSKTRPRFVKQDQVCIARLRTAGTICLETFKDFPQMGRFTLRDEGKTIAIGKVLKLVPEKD
Chain of GSPT1 (Q96SW2 whole entry): as the sequence (Q96SW2 whole entry) above
Chain of GSPT1 (Q16531 2-1140 partner limits assumed): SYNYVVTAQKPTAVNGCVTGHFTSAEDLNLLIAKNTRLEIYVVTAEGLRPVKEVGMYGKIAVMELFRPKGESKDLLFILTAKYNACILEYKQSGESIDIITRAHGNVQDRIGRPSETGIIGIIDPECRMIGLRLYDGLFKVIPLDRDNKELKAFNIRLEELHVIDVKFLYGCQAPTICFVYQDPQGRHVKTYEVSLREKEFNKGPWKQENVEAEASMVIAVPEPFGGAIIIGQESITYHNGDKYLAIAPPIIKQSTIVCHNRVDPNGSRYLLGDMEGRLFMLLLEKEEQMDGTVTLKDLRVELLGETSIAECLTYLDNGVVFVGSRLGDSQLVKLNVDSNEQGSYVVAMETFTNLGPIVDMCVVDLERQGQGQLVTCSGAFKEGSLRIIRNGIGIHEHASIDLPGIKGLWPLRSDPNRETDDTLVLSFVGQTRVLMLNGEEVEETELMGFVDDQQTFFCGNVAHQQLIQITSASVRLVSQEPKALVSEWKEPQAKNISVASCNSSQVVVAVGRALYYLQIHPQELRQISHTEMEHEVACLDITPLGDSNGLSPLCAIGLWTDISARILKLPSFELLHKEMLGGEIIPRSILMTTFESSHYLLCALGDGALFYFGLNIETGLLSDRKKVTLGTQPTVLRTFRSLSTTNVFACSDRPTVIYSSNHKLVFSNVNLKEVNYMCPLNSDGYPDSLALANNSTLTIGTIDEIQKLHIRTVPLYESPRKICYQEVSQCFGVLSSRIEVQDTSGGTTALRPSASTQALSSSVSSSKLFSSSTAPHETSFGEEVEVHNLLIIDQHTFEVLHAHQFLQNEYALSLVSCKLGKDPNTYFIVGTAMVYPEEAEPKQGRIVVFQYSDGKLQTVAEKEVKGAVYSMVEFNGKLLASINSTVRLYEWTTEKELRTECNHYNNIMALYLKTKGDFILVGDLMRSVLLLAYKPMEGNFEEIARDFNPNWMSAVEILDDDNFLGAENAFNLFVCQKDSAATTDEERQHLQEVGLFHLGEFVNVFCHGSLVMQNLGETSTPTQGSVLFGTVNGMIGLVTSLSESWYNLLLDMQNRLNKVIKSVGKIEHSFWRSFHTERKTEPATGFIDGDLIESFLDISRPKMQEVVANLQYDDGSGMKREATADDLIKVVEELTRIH

Turning to `CN1CCC(Oc2cc(Cl)cc(NC(=O)NCc3ccc4c(c3)C(=O)N(C3CCC(=O)NC3=O)C4)c2)C1` (stereo not drawn) [Compound 162], the DC50 on GSPT1 is greater than 300 nM. Further, the IC50 in assay [1] came out at 699 nM.

As for `Cn1cc(NC(=O)NCc2ccc3c(c2)C(=O)N(C2CCC(=O)NC2=O)C3)cn1` (stereo not drawn) [Compound 83], the DC50 at GSPT1 was greater than 300 nM. Further, in assay [1], the IC50 is 387 nM.

On to `CN1CCC(COc2cc(Cl)cc(NC(=O)NCc3ccc4c(c3)C(=O)N(C3CCC(=O)NC3=O)C4)c2)C1` (stereo not drawn) [Compound 161], for which the DC50 on GSPT1 is greater than 300 nM. Moreover, the IC50 in assay [1] is 300 nM.

On to `Cc1c(Cl)cc(NC(=O)NCc2ccc3c(c2)C(=O)N(C2CCC(=O)NC2=O)C3)cc1C[C@H]1CO[C@H](C)OC1` (stereo partly drawn) [Compound 141], for which, at GSPT1, the DC50 was no more than 100 nM. For the same compound, the IC50 in assay [1] came out at 352 nM.

`Cn1ccc(NC(=O)NCc2ccc3c(c2)C(=O)N(C2CCC(=O)NC2=O)C3)n1` (stereo not drawn) [Compound 88]: the DC50 on GSPT1 was greater than 300 nM. The IC50 in assay [1] amounted to 351 nM.

For `Cn1ccc(NC(=O)NCc2ccc3c(c2)C(=O)N(C2CCC(=O)NC2=O)C3)c1` (stereo not drawn) [Compound 128], at GSPT1, the DC50 was greater than 300 nM. The IC50 in assay [1] was 302 nM.

Regarding `Cc1ccc(NC(=O)NCc2ccc3c(c2)C(=O)N(C2CCC(=O)NC2=O)C3)cc1OC(F)(F)F` (stereo not drawn) [Compound 144], the DC50 at GSPT1 was no more than 100 nM. Moreover, the IC50 in assay [1] was 544 nM.

With `Cc1c(Cl)cc(NC(=O)NCc2ccc3c(c2)C(=O)N(C2CCC(=O)NC2=O)C3)cc1OCCN(C)C` (stereo not drawn) [Compound 134], the DC50 on GSPT1 was greater than 300 nM. Further, the IC50 in assay [1] is 394 nM.

Turning to `O=C1CCC(N2Cc3ccc(CNC(=O)Nc4ccsc4)cc3C2=O)C(=O)N1` (stereo not drawn) [Compound 84], on GSPT1, the DC50 was greater than 300 nM. Also, the IC50 in assay [1] worked out at 348 nM.

For `CN1CCC(Oc2cccc(NC(=O)NCc3ccc4c(c3)C(=O)N(C3CCC(=O)NC3=O)C4)c2)CC1` (stereo not drawn) [Compound 130], the DC50 at GSPT1 is greater than 300 nM. In assay [1], the IC50 was determined as 358 nM.

As for `O=C1CCC(N2Cc3ccc(CNC(=O)Nc4cc(F)cc(OC(F)(F)F)c4)cc3C2=O)C(=O)N1` (stereo not drawn) [Compound 165], the DC50 on GSPT1 was greater than 300 nM. In addition, the IC50 in assay [1] came out at 1630 nM.

Turning to `Cc1c(Cl)cc(NC(=O)NCc2ccc3c(c2)C(=O)N(C2CCC(=O)NC2=O)C3)cc1CN1CCN(C)CC1` (stereo not drawn) [Compound 124], on GSPT1, the DC50 is greater than 300 nM. The IC50 in assay [1] is 198 nM.

For `O=C1CCC(N2Cc3ccc(CNC(=O)Nc4cc[nH]n4)cc3C2=O)C(=O)N1` (stereo not drawn) [Compound 102], the DC50 at GSPT1 was greater than 300 nM. The IC50 in assay [1] is 389 nM.

As for `CN(C)CC(=O)Oc1cccc(NC(=O)NCc2ccc3c(c2)C(=O)N(C2CCC(=O)NC2=O)C3)c1` (stereo not drawn) [Compound 136], the DC50 on GSPT1 is greater than 300 nM. For the same compound, the IC50 in assay [1] was determined as 425 nM.

Consider `Cc1c(Cl)cc(NC(=O)NCc2ccc3c(c2)C(=O)N(C2CCC(=O)NC2=O)C3)cc1CC1COC(C)(C)OC1` (stereo not drawn) [Compound 142], for which the DC50 at GSPT1 is no more than 100 nM. Also, in assay [1], the IC50 turned out to be 594 nM.

The term DC50 denotes the midpoint of the concentration-degradation curve. Usually IC50 stands for the concentration at which inhibition is half-maximal.
